Source: ChEMBL document CHEMBL1127201, “Biological activity of 3-aminopropyl (methyl) phosphinic acid, a potent and selective GABAB agonist with CNS activity” (Bioorg Med Chem Lett, 1993)
pIC50: −log10 of the molar value.

target: GABA B receptor (Rattus norvegicus, UniProt O88871+Q9Z0U4); assay: In vitro displacement of [3H]GABA from Gamma-aminobutyric acid type B receptor sites in rat brain membranes; type: cell membranes
Sequence (Q9Z0U4 whole entry): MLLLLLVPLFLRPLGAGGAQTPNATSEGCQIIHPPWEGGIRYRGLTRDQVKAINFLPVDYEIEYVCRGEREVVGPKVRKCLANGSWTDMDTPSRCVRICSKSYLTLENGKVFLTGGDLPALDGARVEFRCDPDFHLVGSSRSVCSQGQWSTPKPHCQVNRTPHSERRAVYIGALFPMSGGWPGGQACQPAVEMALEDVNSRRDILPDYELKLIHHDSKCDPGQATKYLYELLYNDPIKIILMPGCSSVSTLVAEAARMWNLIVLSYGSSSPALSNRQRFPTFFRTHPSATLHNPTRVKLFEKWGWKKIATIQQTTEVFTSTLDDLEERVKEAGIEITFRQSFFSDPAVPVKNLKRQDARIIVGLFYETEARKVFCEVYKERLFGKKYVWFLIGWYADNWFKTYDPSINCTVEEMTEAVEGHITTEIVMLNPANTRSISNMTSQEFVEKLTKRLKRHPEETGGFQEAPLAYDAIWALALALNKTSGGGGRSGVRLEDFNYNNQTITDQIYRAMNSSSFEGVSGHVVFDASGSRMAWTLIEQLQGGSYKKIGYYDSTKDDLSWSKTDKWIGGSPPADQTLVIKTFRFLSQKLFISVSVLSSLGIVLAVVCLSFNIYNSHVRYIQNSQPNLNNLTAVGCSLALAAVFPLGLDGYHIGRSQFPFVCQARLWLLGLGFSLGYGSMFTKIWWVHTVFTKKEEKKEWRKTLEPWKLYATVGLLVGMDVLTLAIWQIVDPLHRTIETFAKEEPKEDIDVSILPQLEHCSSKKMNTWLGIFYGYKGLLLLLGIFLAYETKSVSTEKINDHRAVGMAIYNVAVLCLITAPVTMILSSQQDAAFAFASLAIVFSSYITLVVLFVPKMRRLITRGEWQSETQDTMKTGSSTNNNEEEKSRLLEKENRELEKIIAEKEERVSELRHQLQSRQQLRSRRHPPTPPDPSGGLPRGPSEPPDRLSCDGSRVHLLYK
Sequence (O88871 whole entry): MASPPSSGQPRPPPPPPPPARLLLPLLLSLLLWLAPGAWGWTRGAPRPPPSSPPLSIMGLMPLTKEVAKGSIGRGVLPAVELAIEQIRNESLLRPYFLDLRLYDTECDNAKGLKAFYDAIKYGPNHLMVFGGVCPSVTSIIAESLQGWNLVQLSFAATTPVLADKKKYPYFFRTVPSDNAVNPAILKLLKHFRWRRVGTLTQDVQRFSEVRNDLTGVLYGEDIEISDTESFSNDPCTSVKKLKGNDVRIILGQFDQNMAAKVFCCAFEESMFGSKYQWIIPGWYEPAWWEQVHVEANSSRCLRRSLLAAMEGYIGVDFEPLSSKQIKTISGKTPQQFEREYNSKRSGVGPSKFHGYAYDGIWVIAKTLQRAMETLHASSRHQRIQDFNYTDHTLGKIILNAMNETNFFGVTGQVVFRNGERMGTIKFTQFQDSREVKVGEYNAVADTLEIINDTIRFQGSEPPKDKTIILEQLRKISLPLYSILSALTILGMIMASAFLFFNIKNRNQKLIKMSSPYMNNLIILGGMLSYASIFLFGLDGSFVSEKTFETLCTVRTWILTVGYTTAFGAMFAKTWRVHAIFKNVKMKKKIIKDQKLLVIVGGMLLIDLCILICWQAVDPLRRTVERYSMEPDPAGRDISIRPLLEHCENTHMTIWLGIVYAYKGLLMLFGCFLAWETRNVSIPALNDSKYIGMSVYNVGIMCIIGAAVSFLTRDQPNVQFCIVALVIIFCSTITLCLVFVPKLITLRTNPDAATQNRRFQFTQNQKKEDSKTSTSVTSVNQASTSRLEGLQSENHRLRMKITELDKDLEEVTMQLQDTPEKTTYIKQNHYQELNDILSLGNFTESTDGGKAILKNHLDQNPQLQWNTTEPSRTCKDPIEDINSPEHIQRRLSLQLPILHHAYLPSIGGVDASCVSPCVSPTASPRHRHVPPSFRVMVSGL

Q: How did the pIC50 turn out when `NCCCS(=O)(=O)O` [TRAMIPROSATE] was run?
A: 5.70

Q: How did the pIC50 turn out when `NCCOS(=O)(=O)O` was run?
A: < 4.00

Q: `CCP(=O)(O)CCCN` was tested. Which pIC50 did it give?
A: 5.52

Q: With `NCCOP(=O)(O)O` [PHOSPHORYLETHANOLAMINE] as the compound, how does the pIC50 read?
A: < 4.00

Q: How did the pIC50 turn out when `CCOC(OCC)P(=O)(O)CCCN` was run?
A: 5.60

Q: With `NCCC[PH](=O)O` as the compound, how does the pIC50 read?
A: 8.52

Q: How did the pIC50 turn out when `NCCCP(=O)(O)O` was run?
A: 5.70

Q: With `CCCCCCP(=O)(O)CCCN` as the compound, how does the pIC50 read?
A: 6.00
